Read-outs that look alike come from different tables or passages of the source. Where only a bound is given, the exact number is not on record here.

The test system of assay [1] is IGR37 human melanoma cells. Kind of assay: MTT cell viability assay, IGR37. It is filed as cell-based. The procedure:
(§1) The MTT assay was first described as a sensitive, quantitative, and reliable colorimetric assay to measure the viability, proliferation, and activation of cells. Cell viability was assessed at 24 and 72 h of treatment to evaluate cytotoxicity and the effect on cell proliferation of the decavanadate compound, respectively. The concentrations of the decavanadate compound have been determined by weighing the compound in its crystal form and then solubilizing it in distilled water.
(§2) All cell lines were seeded in 96-well plates (Nunc, Roskilde, Denmark) at a density of 10^4 cells per well and were incubated overnight, before treatment with different concentrations of the decavanadate compound. After 24 or 72 h of treatment, fresh media solution containing MTT at 0.5 mg/mL was added to cells and incubated for 3 h at 37°C. The formed formazan crystals were then dissolved in DMSO, and the absorbance was measured at 560 nm using a BioTek EON Microplate Spectrophotometer (Fisher Scientific). Cell viability was expressed as a percentage of the viable cell number of the untreated cells (control [CTR]).
(§3) The concentration of the decavanadate compound required for 50% growth inhibition (IC50 value) was estimated as resulting in a 50% decrease in absorbance, compared to the CTR.

The subject of assay [2] is human SK-MEL-28 melanoma. The following applies: cited from earlier work.
Assay [3] concerns murine B16-F10 melanoma cells. The note with it: cited from earlier work.
The subject of assay [4] is IGR39 human melanoma cells. The assay can be described thus: MTT cell viability assay, IGR39. Format: cell-based. The procedure: as §1, §2, §3
For assay [5], the system named is normal human keratinocyte cells (HaCaT). The following applies: cited from earlier work.
Assay [6] deals with COLO829 melanoma cell. Details: method as in PMID 32967177. The following applies: read-out: IC50, cell proliferation; cited from earlier work.
For assay [7], the system named is skin papillomas caused by the injection of DMBA and croton oil. Also noted: method as in PMID 28010928. The following applies: 5 mg/kg; cited from earlier work.
For assay [8], the system named is A375 human melanoma cell. Details: method as in PMID 33132760. The note with it: A375, 24 h treatment, cited from earlier work.
Assay [9] concerns allograft model of B16-F10 cells in mice. Details: method as in PMID 29407869, PMID 6722991. The note with it: cited from earlier work.
For assay [10], the system named is IGR39 cells. The following applies: IGR39 proliferation; read-out: IC50, antiproliferative effect on IGR39; cited from earlier work.
In assay [11] the test system is UACC-62 human melanoma cells. The following applies: UACC-62, at 5 μM; cited from earlier work.

In the case of `N.N.[Cl][Pt][Cl]` [Cisplatin, cisplatin], the IC50 in assay [1] (IGR37, 24 h treatment) was 26.5 µM; in [1] (IGR37, 72 h treatment), 3 µM; in [2] (SKMEL28, 24 h), above 12.5 µM; in assay [2] (SKMEL28, 72 h), 9.5 µM; in assay [3] (B16-F10, 24 h), 19.5 µM; in assay [3] (B16-F10, 72 h) it was 10 µM. For the same compound, the IC50 was 83 µM in [4] (IGR39, 24 h treatment); 12.5 µM in assay [4] (IGR39, 72 h treatment); 23.9 µM in assay [5] (HaCaT, 24 h); 23.9 µM in assay [5] (HaCaT, 72 h); 23.9 µM in assay [5] (keratinocyte cell line, 'was reported', no reference printed in the abstract). Moreover, the “IC50, cell viability” value in assay [1] (IGR37, 24 h treatment) worked out at 8 µg/mL; in [1] (IGR37, 72 h treatment), 0.9 µg/mL; in assay [4] (IGR39, 24 h treatment), 25 µg/mL; in [4] (IGR39, 72 h treatment), 3.8 µg/mL.
Take `CN(C)c1ccc(O)c2c1C[C@H]1C[C@H]3[C@H](N(C)C)C(O)=C(C(N)=O)C(=O)[C@@]3(O)C(O)=C1C2=O` [Minocycline]: the IC50 in [6] was 13.9 µM.
Consider `C[C@H]1c2cccc(O)c2C(=O)C2=C(O)[C@]3(O)C(=O)C(C(N)=O)=C(O)[C@@H](N(C)C)[C@@H]3[C@@H](O)[C@@H]21` [doxycycline], for which, in [6], the IC50 was 16.2 µM.
Turning to `[O]=[V]([O-])([O-])[O-]` [orthovanadate], in assay [7], the “Incidence of skin papillomas” value is “partially inhibited the incidence of skin papillomas”.
Turning to `C[C@@H]1O[C@@H](OC[C@H]2O[C@@H](Oc3c(-c4ccc(O)c(O)c4)oc4cc(O)cc(O)c4c3=O)[C@H](O)[C@@H](O)[C@@H]2O)[C@H](O)[C@H](O)[C@H]1O` [rutoside], the “IC50, cell viability” value in assay [8] is “about 100 μg/mL”. Besides, the IC50 in [8] (read-out: IC50, cell viability) was around 163 µM.
`[O]=[V]([O-])([O-])[O-]` [vanadate]: the “Tumor size and incidence” value in assay [9] is “significantly decreased tumor size and their incidence”.
Regarding `O=S(=O)([O-])[O-].[O]=[V+2]` [vanadyl sulfate], the “Tumor size and incidence” value in assay [9] was “significantly decreased tumor size and their incidence”.
As to (C4N2H7)6(C4N2H6)2V10O28, the IC50 in assay [10] is 7 µM.
Turning to (NH4)4Li2V10O2810H2O, the IC50 in [10] was 9.8 µM.
On to Mg(H2O)6(C4N2H7)4V10O28·4H2O, for which the IC50 in [10] was 2 µM.
As for metformin–decavanadate [Metf-V10], in [11], the Inhibition of proliferation is 80%.
